{"source": "patent US20210108198A1", "about": "“APPLICATION OF COMPOUND OR TRADITIONAL CHINESE MEDICINE EXTRACT IN PREPARATION OF NUCLEIC ACID DELIVERY AGENT AND RELATED PRODUCTS THEREOF” (INSTITUTE OF BASIC MEDICAL SCIENCES CHINESE ACADEMY OF …, priority 2017, published 2021)", "key": {"[1]": {"test_system": "protein expression of the corresponding knockdown genes in A549 cells", "experiment": "Western blot of knockdown genes after lipid-mediated siRNA delivery into A549 cells", "assay_type": "cell-based, human", "details": "LAMP2, XPN2, Ssu72, CPSF4 or β-actin siRNA 400 nM; reverse evaporation method; FIG. 82", "method": "3.3.1 MRC-5 cell (pulmonary embryonic fibroblast), and A549 cell (human lung adenocarcinoma cell) were cultured to logarithmic growth phase, and then plated into 12-well plates at a cell density of 6×10^5/1 mL medium/well; MRC-5 cells were cultured in Eagle's MEM medium (MEM, Gibco); A549 cells were cultured in Ham's F-12 medium (HyClone); followed by incubation overnight at 37° C., and the follow-up experiments were performed after the cells were attached to the walls.\n4) Lipid nucleic acid mixture: the mixture of lipid and nucleic acid prepared from the step 2 were added into cells and mixed, and the final concentration of nucleic acid was 400 nM.\n3.3.3 After 24 hours of treatment, the cells were stimulated with the stimulant (1 μg/mL poly (I:C) (P1530, Sigma-Aldrich) as double-stranded RNA viruses mimetics) or 3 ng/mL transforming growth factor TGFβ1 (Pepro Tech)). […]"}, "[2]": {"test_system": "A549 cells", "experiment": "Flow cytometry detection of the efficiency of nucleic acid delivery by lipid", "assay_type": "cell-based, human", "details": "PGY-sRNA-6-FAM, boiling method", "method": "Experimental materials: A549 cells (purchased from the Cell Center of the Chinese Academy of Medical Sciences), FAM-sRNA (purchased from Ribobio Biotechnology Co., Ltd.), lipid No. 41, Accuri® C6 instrument (purchased from BD, USA).\nExperimental methods: PGY-sRNA-6-FAM was dissolved in 100 μl water, mixed with 4 μl lipid, and prepared by boiling method. Then the mixture was dropped into A549 cells, and after 6 hours of co-incubation, the samples were collected for detection as follows: firstly wash three times with PBS, then digest with trypsin for 3 minutes and remove trypsin, wash with PBS again and then blow down the cells. The detection was performed using Accuri® C6 instrument.\nExperimental Method: PGY-sRNA-6-FAM was dissolved in 100 μl water, and mixed with 4 μl lipid, and prepared into lipid-sRNA mixture by boiling method. Then, the mixture was dropped into A549 cells, and after 6 hours of co-incubation, the samples were collected and washed three times with PBS, then digested with trypsin into single cells, washed with re-suspended with PBS and then blown down for Accuri® C6 instrument detection.\nExperimental Method: FAM-sRNA was dissolved in 100 μl water, and mixed with 4 μl lipid, prepared by boiling method. Then, the lipid-sRNA mixture was dropped into A549 cells, and after 6 hours of co-incubation, the samples were collected and washed three times with PBS, then digested into single cells with trypsin, re-suspended with PBS and then blown down for Accuri® C6 instrument detection."}, "[3]": {"details": "4 μl lipid, 6 hours of co-incubation"}}, "data": [{"smiles": "CCCCCCCCCCCCCCCCCCC[C@@H](O)[C@@H](N)CO", "note": "[No. 41, Sphinganine (d22:0)]", "values": [{"measurement": "protein knockdown effect (Western blot)", "setting": "[1]", "value": "significantly higher than the inhibitory effect of HJT-sRNA-m7 mediated by RNAiMAX"}, {"measurement": "efficiency in delivering PGY-sRNA-6 double-stranded RNA (flow cytometry)", "setting": "[2]; [3]", "value": 96.7, "unit": "%"}, {"measurement": "efficiency in delivering PGY-sRNA-6 single-stranded RNA (flow cytometry)", "setting": "[2]; [3]", "value": 94.1, "unit": "%"}, {"measurement": "efficiency of nucleic acid delivery by flow cytometry, in words", "setting": "[2]; 6 hours", "value": "could efficiently deliver single-stranded and double-stranded nucleic acids into A549 cells"}]}]}
